Test in all cases: growth of human tumour cells (NCI), 48 h
Assay [1] relates to DLD-1 colon.
Assay [2] relates to DMS 273 small cell lung.
Assay [3] concerns KM20L2 colon.
Assay [4] relates to MALME-3M melanoma.
Assay [5] has as its system NCI-H460 lung.
Assay [6] relates to NCI-H522 lung.
Assay [7] has as its system SF-295 CNS.
Assay [8] concerns UACC-62 melanoma.
Assay [9] relates to DU-145 prostate.
The subject of assay [10] is HS 578T breast.

Where “and” joins values, the source holds several entries; their conditions need not be identical. Identical values can stand only once.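 Results reflect a 48-hour exposure of cells in 96-well plates to compound at five concentrations. GI50: concentration for 50% inhibition of growth. The concentration for full growth arrest is given as TGI.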 Some results are limits rather than exact numbers.

Consider `Nc1nc2c(ncn2C2OC(CO)C(O)C2O)c(=O)[nH]1` (stereo not given), for which the TGI in assay [1] is 142 µM; in assay [2], 159 µM; in assay [3], 214 µM; in assay [4], 55.4 µM and 285 µM; in assay [5] it was > 100 µM and 154 µM; in assay [6], > 100 µM and 149 µM. In addition, the TGI is > 100 µM and 184 µM in assay [7]; > 100 µM and 175 µM in [8]. Further, the GI50 is 24.1 µM and 176 µM in assay [4]; > 100 µM and 15.5 µM in assay [5]; above 100 µM in assay [6]; above 100 µM in assay [8].
Take `O=C1Cc2c([nH]c3ccccc23)-c2cc(Br)ccc2N1`: the TGI in [1], in assay [2], in assay [3], in assay [4], in [5] and in [6] was above 100 µM in each case. In assay [7], this compound came in with a TGI above 100 µM.
For the compound `O=C([CH-]C(=O)c1ccccc1)c1ccccc1.[CH2-]C.[CH2-]C.[Tl+3]`, the GI50 in assay [9] was 15.3 µM; in [10], 31.7 µM; in [3] it was 27.4 µM; in assay [4], 21.3 µM; in assay [5] it was 10.8 µM; in assay [6] it was 21.5 µM. Further, the values for the GI50 in [7] and in assay [8] were 15.6 µM and 20.8 µM, respectively. In addition, the TGI in assay [9] was 59.3 µM; in [10], above 100 µM; in assay [3] it was above 100 µM; in [4], above 76.7 µM; in [5] it was above 100 µM; in assay [6] it was above 85.2 µM. For the same compound, the TGI was above 100 µM in assay [7] and 87.6 µM in assay [8].
Regarding `CCOC(=O)C(=O)Nc1nc2ccc(OC)cc2s1`, the TGI in assay [1], in assay [2], in [3], in assay [4], in assay [5] and in assay [7] was above 100 µM each time. For the same compound, the TGI in [8] is above 100 µM.
For `CCOC(=O)c1cnc2c(ccc3ncccc32)c1OCC`, the TGI in [1], in [2], in [3], in [4], in assay [5] and in assay [6] was above 100 µM throughout. Moreover, the TGI in [8] is above 100 µM.
As for `COc1ccc(-c2nc3sccn3c2/C=C/C(=O)c2cc(OC)c(OC)c(OC)c2)cc1`, the GI50 is 2.86 µM in assay [9]; 2.18 µM in assay [10]; 4.39 µM in [4]; 2.54 µM in [5]; 4.16 µM in assay [6]; 2.91 µM in assay [7]. Besides, in assay [8], the GI50 was 2.08 µM. In addition, the TGI in assay [9] is 12.9 µM; in assay [10], above 24.1 µM; in assay [4], above 100 µM; in [5], 11.1 µM; in assay [6] it was above 22.2 µM; in assay [7], 18.3 µM. The TGI in assay [8] was determined as 9.15 µM.
Turning to `CCCCCCC1CCCCN1C(c1ccccc1)C(O)c1ccccc1` (stereo not given), the GI50 in assay [9] is 8.34 µM; in [10] it was 6.68 µM; in assay [4] it was 5.37 µM; in [5], 3.92 µM; in assay [6], 5.1 µM; in assay [7] it was 4.31 µM. Moreover, the GI50 in assay [8] was 11.7 µM. Besides, the TGI in assay [9] worked out at 20.7 µM; in assay [10], 21.1 µM; in [4], 19.7 µM; in assay [5], 13.6 µM; in assay [6], 18.5 µM; in assay [7], 18.4 µM. Also, in assay [8], the TGI turned out to be 24.8 µM.
As for `Clc1cc(Cl)cc(Nc2ccc3c(OCCCN4CCOCC4)cccc3n2)c1`, the GI50 in [9] is 3.08 µM; in [10], 2.51 µM; in assay [4], 2.5 µM; in [5], 2.42 µM; in assay [6] it was 1.82 µM; in [7], 1.92 µM. The GI50 in [8] was 2.01 µM. Moreover, the TGI amounted to 9.67 µM in assay [9]; 8.14 µM in assay [10]; 6.33 µM in assay [4]; 5.86 µM in assay [5]; 3.57 µM in assay [6]; 4.06 µM in assay [7]. The same compound yielded a TGI in [8] of 4.57 µM.
As for `COc1cc2ccc(CC(=O)O)cc2cc1OC`, the TGI in assay [1], in assay [2], in [3], in [4], in [6] and in assay [8] was above 100 µM each time.
With `CN(C)CCC(/C=C/c1ccccc1)=N\Nc1c(F)c(F)c(F)c(F)c1F`, the TGI in assay [1], in assay [2], in [4], in [5], in [6] and in assay [7] was above 100 µM in each case. Besides, in [8], the TGI was above 100 µM.
On to `C=C1CCC2C(C)(CO)C(O)CCC2(C)C1C/C=C1\C(=O)OCC1O` (stereo not given), for which the TGI in assay [9] is above 100 µM; in assay [10], above 100 µM; in assay [4], 30.2 µM; in assay [5], 59.2 µM; in [6], 28.4 µM; in assay [7], 52.5 µM. In addition, in assay [8], the TGI is 57.5 µM.
In the case of `Fc1nc(Sc2ncnc3nc[nH]c23)nc(-c2c3ccccc3c3sc4ccccc4n23)n1`, the TGI in [9], in [10], in assay [4], in assay [5], in assay [6] and in assay [7] was above 100 µM each time. For the same compound, the TGI in assay [8] is above 100 µM.
Regarding `COc1ccc([C@H]2c3[nH]c4ccccc4c3C[C@H]3C(=O)N(CCCCCCC(=O)NO)CC(=O)N23)cc1`, the GI50 in assay [9] is 1.83 µM; in assay [10] it was 1.34 µM; in [4], 0.806 µM; in assay [5] it was 2.76 µM; in [6] it was 1.4 µM; in assay [7], 1.91 µM. In assay [8], the GI50 was 0.705 µM. For the same compound, the TGI in assay [9] was above 33.3 µM; in assay [10], above 33.3 µM; in [4], above 33.3 µM; in assay [5] it was above 33.3 µM; in assay [6], above 33.3 µM; in [7] it was 12.4 µM. The compound also gave a TGI in assay [8] of 3.97 µM.
Regarding `Cn1cc(C2=C(c3cccc([N+](=O)[O-])c3)C(=O)NC2=O)c2ccccc21`, the GI50 was 12.7 µM in [9]; 2.14 µM in assay [10]; 13.6 µM in assay [4]; 8.52 µM in assay [5]; 7.66 µM in assay [6]; 2.14 µM in assay [7]. Also, the GI50 in [8] is 6.58 µM. Further, the TGI in assay [9] is above 25 µM; in [10], above 25 µM; in assay [4], above 25 µM; in [5], above 25 µM; in [6] it was above 22.5 µM; in assay [7], above 14 µM. In [8], this compound yielded a TGI of 18.1 µM.
With `NCC[PH+](c1ccccc1)c1ccccc1.NCC[PH+](c1ccccc1)c1ccccc1.[Cl-].[Pt+4]`, the GI50 was above 100 µM in assay [9]; 99.6 µM in [10]; above 100 µM in assay [4]; 84.5 µM in [5]; above 87.1 µM in assay [6]; above 100 µM in assay [7]. Besides, the GI50 in [8] is above 86.5 µM. Further, the TGI in [9], in assay [10], in assay [4], in assay [5], in assay [6] and in assay [7] was above 100 µM in each case. This compound also had a TGI in [8] above 100 µM.
For `O=c1ccc(=O)c2c1c1[nH]c3ccccc3c1c1c(=O)c3ccccc3c(=O)c21`, the TGI in assay [9], in assay [10], in assay [4], in [5], in assay [6] and in assay [7] was above 10 µM throughout. The TGI in assay [8] is above 10 µM.
Take `COc1ccc(-c2nn(-c3cccc(Cl)c3)cc2-c2c(C#N)c(=O)n3[nH]c(-c4ccc(C)o4)nc3c2C#N)cc1`: the GI50 was 19.1 µM in assay [9]; 2.95 µM in assay [10]; 7.88 µM in assay [4]; 6.38 µM in [5]; 4.96 µM in [6]; 3.46 µM in assay [7]. In [8], the GI50 is 6.46 µM. Also, the TGI is above 50 µM in assay [9]; above 50 µM in assay [10]; 41.1 µM in [4]; above 50 µM in assay [5]; 23.1 µM in assay [6]; above 50 µM in assay [7]. The TGI in assay [8] was 42.7 µM.
Turning to `CSc1ccc2c(c1)N(CCCN(C)C)c1ccccc1S2`, the TGI in assay [9] worked out at 30.1 µM; in [10], 28.7 µM; in assay [4], 22 µM; in assay [5], 26.5 µM; in assay [6], 26.6 µM; in assay [7] it was 26.8 µM. For the same compound, the TGI in assay [8] is 22.4 µM.
In the case of `COc1cc2c(c(OC)c1OC)-c1ccc(SC)c(=O)cc1C(CC(=O)Oc1ccccc1F)C2` (stereo not given), the TGI is above 7.5 µM in assay [1]; 0.0252 µM in assay [3]; above 7.5 µM in assay [4]; above 7.5 µM in [5]; 0.0307 µM in [6]; above 7.5 µM in assay [7]. In [8], this compound registered a TGI of 0.0688 µM.
In the case of `Cc1cc(=O)[nH]c2c1C(=O)c1c(C)cc(=O)n(C)c1C2=O`, the TGI in assay [9] was determined as 0.0479 µM; in assay [10] it was 0.154 µM; in assay [4], 0.00494 µM; in assay [5], 0.364 µM; in [6] it was 0.187 µM; in assay [7], 0.31 µM. The compound further had a TGI in [8] of 0.0332 µM.
As to `Cc1cc(N(CCC#N)CCC#N)ccc1/C=C1N=C(/C=C\c2ccccc2)N(c2ccc(C(=O)O)cc2)C\1=O`, the TGI in assay [1], in [3], in assay [4], in assay [5], in assay [6] and in [7] was above 100 µM throughout. In addition, the TGI in assay [8] was above 100 µM.
On to `COc1cc(C(=O)Nc2ccc(-c3nc4ccccc4[nH]3)cc2)cc(OC)c1OC`, for which the GI50 in assay [9] is 11.2 µM; in assay [10] it was 3.54 µM; in assay [4] it was 12 µM; in [5], 5.74 µM; in [6], 7.75 µM; in [7] it was 10.7 µM. The GI50 in assay [8] is 9.89 µM. For the same compound, the TGI in [9] is 25.3 µM; in [10] it was 19.3 µM; in assay [4] it was 31.6 µM; in assay [5] it was 22.7 µM; in assay [6], 29.9 µM; in assay [7] it was 25.5 µM. In [8], this compound displayed a TGI of 24.4 µM.
Consider `N#CC(C#N)=C/C=C/c1ccccc1[N+](=O)[O-]`, for which the TGI in assay [9], in [10], in [4], in assay [5], in assay [6] and in [7] was above 10 µM in each case. The compound also returned a TGI in assay [8] of 9.39 µM.
Take `CC(C)(C)c1cnc(CSc2cnc(NC(=O)C3CCNCC3)s2)o1`: the GI50 in assay [9] is 0.184 µM and 0.254 µM; in assay [10], 0.334 µM and 0.226 µM; in assay [4], 0.229 µM and 0.286 µM; in assay [5], 0.306 µM and 0.319 µM; in assay [6], 0.189 µM and 0.175 µM; in [7] it was 0.185 µM and 0.602 µM. In addition, in [8], the GI50 was 0.16 µM and 0.178 µM. Besides, the TGI in [9] was 5.53 µM and > 10 µM; in assay [10], above 2.64 µM; in [4], 0.511 µM and 0.907 µM; in assay [5] it was 25.4 µM and > 10 µM; in assay [6], 0.494 µM and 0.565 µM; in assay [7] it was above 10 µM. The TGI in [8] is 0.403 µM and 0.702 µM.
Take `CNc1ccc(CSc2ccc(C)cc2)cc1`: the GI50 in [9] is 31 µM; in [10] it was 56 µM; in assay [4] it was 31.5 µM; in [5] it was 25.3 µM; in assay [6], 3.62 µM; in assay [7], 22.3 µM. Also, the GI50 in [8] is 17.3 µM. Further, the TGI in assay [9] was above 100 µM; in [10], above 100 µM; in assay [4], above 100 µM; in [5], above 100 µM; in assay [6] it was 23.7 µM; in [7], above 100 µM. In addition, the TGI in assay [8] was found to be 52.9 µM.
`CC(=O)OCCc1cc2ccccc2oc1=O`: the TGI in [9], in assay [10], in assay [4], in assay [5], in assay [6] and in assay [7] was above 100 µM each time. The compound also came in with a TGI in assay [8] above 100 µM.
